In one series the target is T1, MtCorBΔC (Methanoculleus thermophilus, UniProt A0A1G8XA46).
T1 construct: gene corB; residues 1-322 (TMD, AHB, CBS-pair; CorC domain deleted), C-terminal His6-tag, E. coli C41(DE3), detergent-solubilized
Put plainly: isothermal titration calorimetry. Format: binding. From the text: isothermal titration calorimetry on MtCorBΔC | MtCorBΔC has the highest affinity for ATP, followed by ADP and AMP

A further series deals with T2, MtCorBCBS (Methanoculleus thermophilus, UniProt A0A1G8XA46).
T2 construct: gene corB; CBS-pair domain, residues 199-322, GST-tag cut leaving N-terminal GPLGS, E. coli BL21(DE3); crystal 7MSU came from in situ cleavage of MtCorBΔC
In words: isothermal titration calorimetry; also crystal structure […] Å. It is filed as binding.

Series [1] deals with the molecule itself. Put plainly: crystal structure; MtCorBΔC R235L in 0.05% UDM, no ATP; hanging drop, 0.1 M sodium citrate pH 5.5, 50 mM Li2SO4, 11% PEG4000, 10 mM MgSO4, 22 °C; 3.8 Å.
Series [2] concerns the molecule itself. Put plainly: HDX-MS; MtCorB or MtCorBΔC in MSP1D1 nanodiscs, with and without Mg2+-ATP; exchange for 3, 30, 300 or 3000 s at 20 °C, 100 mM NaCl, 20 mM HEPES pH 7.5.
Series [3] deals with the molecule itself. Put plainly: crystal structure; MtCorBΔC_(Δloop) in 0.05% UDM with 5 mM ATP and 20 mM MgCl2; hanging drop, 0.1 M sodium citrate pH 5.5, 0.1 M Li2SO4, 0.1 M NaCl, 34% PEG400, 22 °C; 3.25 Å.

Data on seven molecules can be found in publication PMC8242095, “Crystal structure of an archaeal CorB magnesium transporter” (Nature Communications, 2021).

For orientation: Kd means the free concentration of one partner at which half of the binding sites on the other are occupied at equilibrium, for simple one-to-one binding. The low end stands for higher affinity, the high end for lower affinity.

Where a chain is given by its changes, count along the chain named. Names may count otherwise.

On MtCorBΔC, `Nc1ncnc2c1ncn2[C@@H]1O[C@H](COP(=O)(O)OP(=O)(O)O)[C@@H](O)[C@H]1O` [ADP] displayed a Kd of 10.3 ± 1 µM.

As for `Nc1ncnc2c1ncn2[C@@H]1O[C@H](COP(=O)(O)O)[C@@H](O)[C@H]1O` [AMP], on MtCorBΔC, the affinity, expressed as Kd, was 83 ± 17 µM.

As to `Nc1ncnc2c1ncn2[C@@H]1O[C@H](COP(=O)(O)OP(=O)(O)OP(=O)(O)O)[C@@H](O)[C@H]1O` [ATP], the Kd at MtCorBΔC turned out to be 0.59 ± 0.06 µM; at MtCorBCBS, 0.53 ± 0.05 µM.

B1: MtCorBΔC R235L (domain or fragment, Methanoculleus thermophilus, UniProt A0A1G8XA46 1-322, looked up)
chain: MVVIDLLIVEVVLFIAALLFSGFFSSSEVALISITRAKVHALQSQGRKGAKALDTLKRSTDAIQITTLIGSTIANVAVASLATAIGITLYGNLGIAVGLVVAAVLVLVFGEIGPKMYASRYTEELALRVSRPILFFSKLLYPVLWVTDRIEQQFAFRPGVTEPVVTEEEIKEWIDVGEEEGTIEEEERDMLYSVLRFGDTTAREVMTPRVDVVMIEDTATLESALAIFNETGFSLIPVYHERIDNIVGLLNVKDVFSAVFRQQTSATIRDLMYEPYFIPESKKIDELLKELQVKKQHMAVVLDEYGSFAGIVTVEDMLEELV
notes: CorB, Methanoculleus thermophilus, UniProt A0A1G8XA46, residues 1-322 (MtCorBΔC) with R235L; also called MtCorBΔC R235L mutant; apo conformation of MtCorBΔC; source: E. coli C41 (DE3), purified (Ni-NTA, SEC) in UDM
As for B1, the binding result in series [1] is “binds”.

B2: MtCorBΔC (residues 1–322) (domain or fragment, Methanoculleus thermophilus, UniProt A0A1G8XA46 1-322, looked up)
chain: B1 chain with L235R
notes: CorB, Methanoculleus thermophilus, UniProt A0A1G8XA46, residues 1-322 (CorC domain deleted); In nanodiscs of soybean polar extract and MSP1D1 (MtCorB:MSP1D1:lipid 2:10:550); filled nanodiscs were recovered on Ni-NTA; also called truncated MtCorB; MtCorB with a C-terminal CorC domain deletion; source: E. coli C41 (DE3), purified (Ni-NTA, SEC), reconstituted into MSP1D1 nanodiscs; not shown: His6, …
For B2, in series [2], the binding result was “binds”.

B3: MtCorB (residues 1–426), Methanoculleus thermophilus CorB (natural protein, UniProt A0A1G8XA46 1-426, looked up)
chain: MVVIDLLIVEVVLFIAALLFSGFFSSSEVALISITRAKVHALQSQGRKGAKALDTLKRSTDAIQITTLIGSTIANVAVASLATAIGITLYGNLGIAVGLVVAAVLVLVFGEIGPKMYASRYTEELALRVSRPILFFSKLLYPVLWVTDRIEQQFAFRPGVTEPVVTEEEIKEWIDVGEEEGTIEEEERDMLYSVLRFGDTTAREVMTPRVDVVMIEDTATLESALAIFNETGFSRIPVYHERIDNIVGLLNVKDVFSAVFRQQTSATIRDLMYEPYFIPESKKIDELLKELQVKKQHMAVVLDEYGSFAGIVTVEDMLEELVGEILDEFDEEEPEVQQLEEGIYLVDARTWVEHLNEDLDLNLPLMDTYESIGGLVIERLGHIPRRGEVVKIEESNVTLVVMQMRGRRIVKVKLIIGPPVPPTESR
notes: CorB, Methanoculleus thermophilus, UniProt A0A1G8XA46, residues 1-426; In nanodiscs of soybean polar extract and MSP1D1; filled nanodiscs were recovered on Ni-NTA; also called full-length MtCorB; source: E. coli C41 (DE3), purified (Ni-NTA, SEC), reconstituted into MSP1D1 nanodiscs; not shown: His6, C-terminal, kept
As for B3, the binding result in series [2] was “binds”.

B4: MtCorBΔC_(Δloop) (Methanoculleus thermophilus CorB residues 1–322 Δ259–262) (domain or fragment, UniProt A0A1G8XA46 1-322, looked up)
chain: MVVIDLLIVEVVLFIAALLFSGFFSSSEVALISITRAKVHALQSQGRKGAKALDTLKRSTDAIQITTLIGSTIANVAVASLATAIGITLYGNLGIAVGLVVAAVLVLVFGEIGPKMYASRYTEELALRVSRPILFFSKLLYPVLWVTDRIEQQFAFRPGVTEPVVTEEEIKEWIDVGEEEGTIEEEERDMLYSVLRFGDTTAREVMTPRVDVVMIEDTATLESALAIFNETGFSRIPVYHERIDNIVGLLNVKDVFSAQTSATIRDLMYEPYFIPESKKIDELLKELQVKKQHMAVVLDEYGSFAGIVTVEDMLEELV
notes: CorB, Methanoculleus thermophilus, UniProt A0A1G8XA46, residues 1-322 (TMD, AHB and CBS-pair domain; CorC domain deleted) with the internal loop 259-262 deleted; Modelled: chain A residues 5-322, chain B residues 4-154 and 160-322; also called MtCorBΔC with an internal loop deletion; source: E. coli C41 (DE3), purified (Ni-NTA, SEC) in UDM
Turning to B4, in series [3], the binding result was “binds”.
